Values of other authors in US20120009125A1, “APOE4 AND APOJ BIOMARKER-BASED PREVENTION AND TREATMENT OF DEMENTIA” (priority 2010, published 2012).
Read-outs that look alike come from different tables or passages of the source.

Key:
Hsp70, Hsp90, and Hsp105 = details: cell model
HSPs = details: oral administration

solubility in water: practically insoluble
SMILES: CC(=O)CC/C=C(\C)CC/C=C(\C)CC/C=C(\C)CCC=C(C)C [GGA, (9E;13E)-6,10,14,18-tetramethyl-5,9,13,17-nonadecatetraen-2-one]
cell death (cell model): inhibited
levels of Hsp70, Hsp90, and Hsp105 (Hsp70, Hsp90, and Hsp105): increased
amyloid oligomer levels and aggregates (amyloid oligomer): reduces
amyloid oligomer levels and aggregates (amyloid oligomer; oral administration): reduces
expression of HSPs in the central nervous system (HSPs): up-regulated
